Experimental findings from patent US20230103791A1 (GLAXOSMITHKLINE INTELLECTUAL PROPERTY DEVELOPMENT LIMITED, priority 2019, published 2023) are described below.

Some results are limits rather than exact numbers.

The target in the experiment is T1, human Nav1.8 (Homo sapiens, UniProt Q9Y5Y9).
T1 construct: expressed in transfected cells; host or cells: HEK293 (HEK293-Nav1.8)
T1 sequence (Q9Y5Y9 whole entry): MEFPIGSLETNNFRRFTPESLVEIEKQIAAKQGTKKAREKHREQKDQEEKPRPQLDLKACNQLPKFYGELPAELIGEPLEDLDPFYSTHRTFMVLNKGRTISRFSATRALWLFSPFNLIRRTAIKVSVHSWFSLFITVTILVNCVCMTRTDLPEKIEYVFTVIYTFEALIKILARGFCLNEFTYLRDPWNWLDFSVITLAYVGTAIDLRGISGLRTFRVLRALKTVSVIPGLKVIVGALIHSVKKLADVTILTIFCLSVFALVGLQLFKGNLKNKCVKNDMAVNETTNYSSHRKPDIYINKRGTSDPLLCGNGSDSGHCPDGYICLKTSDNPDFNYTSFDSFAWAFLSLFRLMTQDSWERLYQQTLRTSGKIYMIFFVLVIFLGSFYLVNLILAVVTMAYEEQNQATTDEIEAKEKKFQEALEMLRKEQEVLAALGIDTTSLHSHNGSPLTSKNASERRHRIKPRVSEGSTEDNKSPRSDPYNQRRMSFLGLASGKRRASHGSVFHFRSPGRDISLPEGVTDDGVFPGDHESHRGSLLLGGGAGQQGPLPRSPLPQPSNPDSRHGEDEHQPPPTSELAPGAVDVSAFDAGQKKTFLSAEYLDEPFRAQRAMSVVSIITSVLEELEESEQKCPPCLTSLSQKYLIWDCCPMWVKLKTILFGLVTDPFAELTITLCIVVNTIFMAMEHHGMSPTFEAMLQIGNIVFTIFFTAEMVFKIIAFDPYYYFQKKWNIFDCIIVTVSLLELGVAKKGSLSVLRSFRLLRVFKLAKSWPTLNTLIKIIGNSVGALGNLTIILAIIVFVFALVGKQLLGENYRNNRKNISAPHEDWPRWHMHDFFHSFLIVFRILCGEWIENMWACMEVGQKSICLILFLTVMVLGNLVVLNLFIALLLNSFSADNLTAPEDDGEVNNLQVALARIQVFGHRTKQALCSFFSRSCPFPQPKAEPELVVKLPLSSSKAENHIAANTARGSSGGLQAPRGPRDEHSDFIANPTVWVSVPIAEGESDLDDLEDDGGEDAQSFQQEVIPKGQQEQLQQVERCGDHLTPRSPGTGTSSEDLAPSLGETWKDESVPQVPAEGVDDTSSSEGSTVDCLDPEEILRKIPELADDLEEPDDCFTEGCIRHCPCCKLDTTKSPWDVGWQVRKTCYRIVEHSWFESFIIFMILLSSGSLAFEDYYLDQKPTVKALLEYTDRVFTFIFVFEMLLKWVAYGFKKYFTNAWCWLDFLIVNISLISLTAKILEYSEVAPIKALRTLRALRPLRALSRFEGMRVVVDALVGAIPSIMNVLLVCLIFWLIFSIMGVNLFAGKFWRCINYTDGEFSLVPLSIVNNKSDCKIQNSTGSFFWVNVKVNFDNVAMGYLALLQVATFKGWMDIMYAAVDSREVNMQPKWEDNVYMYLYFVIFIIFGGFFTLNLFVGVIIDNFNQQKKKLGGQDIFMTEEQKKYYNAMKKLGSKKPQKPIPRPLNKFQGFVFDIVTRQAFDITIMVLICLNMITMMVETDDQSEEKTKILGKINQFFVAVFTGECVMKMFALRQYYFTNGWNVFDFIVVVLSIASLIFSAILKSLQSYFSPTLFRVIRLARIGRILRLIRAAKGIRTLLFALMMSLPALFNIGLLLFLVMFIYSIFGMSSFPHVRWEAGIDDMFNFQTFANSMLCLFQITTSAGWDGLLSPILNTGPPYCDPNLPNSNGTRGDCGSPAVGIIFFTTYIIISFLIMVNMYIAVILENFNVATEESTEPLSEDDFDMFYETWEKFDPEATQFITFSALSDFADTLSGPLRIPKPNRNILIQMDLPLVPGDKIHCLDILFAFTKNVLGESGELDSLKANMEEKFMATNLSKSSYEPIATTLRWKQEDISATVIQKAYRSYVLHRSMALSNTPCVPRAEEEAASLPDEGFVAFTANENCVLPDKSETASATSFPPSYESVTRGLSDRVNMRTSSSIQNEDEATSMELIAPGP
T1 sequence (Q07699 19-218 partner): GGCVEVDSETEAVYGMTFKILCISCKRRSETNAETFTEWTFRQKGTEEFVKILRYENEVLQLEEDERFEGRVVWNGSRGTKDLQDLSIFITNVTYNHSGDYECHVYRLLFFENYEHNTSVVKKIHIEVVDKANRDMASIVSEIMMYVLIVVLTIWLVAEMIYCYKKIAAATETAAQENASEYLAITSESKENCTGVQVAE
In words: Nav1.8 sodium channels assay, QPatch 48 HTX electrophysiology in HEK293-Nav1.8 cells. Conditions: at least one set of experimental runs; read-out: average pIC50 value against Nav1.8 (converted). The class given is cell-based. A digest of the protocol: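 HEK293 cells co-expressing human Nav1.8, Navβ1 and TREK1 were voltage-clamped on QPatch 48 HTX. The V1/2 protocol ran at 0.07 Hz: hold −100 mV, 20 ms to 0 mV, 8 s at −46 mV, 20 ms at −100 mV, then 20 ms at 0 mV (P2). P2 current was fitted over 6-8 concentrations for IC50, with vehicle wells used to correct for run-down.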
On to `Cc1[nH]c(=O)ccc1N1CN([C@@H]2CCCC[C@@H]2C)c2cc(C(F)(F)F)ccc2C1=O` [Example 162, 3-(2-methyl-6-oxo-1,6-dihydropyridin-3-yl)-1-((1R,2S)-2-methylcyclohexyl)-7-(trifluoromethyl)-2,3-dihydroquinazolin-4(1H)-one], for which the IC50 is at most 100 nM.
With `CC(=O)Nc1[nH]c(=O)ccc1N1CN(c2ccc(F)cc2C)c2ccc(C(F)(F)F)cc2C1=O` [Example 163, N-(3-(1-(4-fluoro-2-methylphenyl)-4-oxo-6-(trifluoromethyl)-1,4-dihydroquinazolin-3(2H)-yl)-6-oxo-1,6-dihydropyridin-2-yl)acetamide], the IC50 is 794 to 7940 nM.
Regarding `Cc1cc(F)ccc1N1CN(c2ccc(=O)[nH]c2Br)C(=O)c2cc(C(F)(F)F)ccc21` [Example 164, 3-(2-bromo-6-oxo-1,6-dihydropyridin-3-yl)-1-(4-fluoro-2-methylphenyl)-6-(trifluoromethyl)-2,3-dihydroquinazolin-4(1H)-one], the IC50 is 126 to 631 nM.
Regarding `COc1nc2c(cc1F)C(=O)N(c1ccc(=O)[nH]c1C)CN2c1ccc(F)cc1C` [Example 165, 6-fluoro-1-(4-fluoro-2-methylphenyl)-7-methoxy-3-(2-methyl-6-oxo-1,6-dihydropyridin-3-yl)-2,3-dihydropyrido[2,3-d]pyrimidin-4(1H)-one], the IC50 was 126 to 631 nM.
On to `Cc1cc(F)ccc1N1CN(c2ccc(=O)[nH]c2C)C(=O)c2cc(C#N)c(C(F)(F)F)cc21` [Example 166, 1-(4-fluoro-2-methylphenyl)-3-(2-methyl-6-oxo-1,6-dihydropyridin-3-yl)-4-oxo-7-(trifluoromethyl)-1,2,3,4-tetra-hydroquinazoline-6-carbonitrile], for which the IC50 was at most 100 nM.
With `Cc1cc(F)ccc1N1CN(c2ccc(=O)[nH]c2C)C(=O)c2cc(Cl)c(OC(F)F)cc21` [Example 167, 6-chloro-7-(difluoromethoxy)-1-(4-fluoro-2-methylphenyl)-3-(2-methyl-6-oxo-1,6-dihydropyridin-3-yl)-2,3-dihydroquinazolin-4(1H)-one], the IC50 was at most 100 nM.
In the case of `Cc1cc(F)ccc1N1CN(c2ccc(=O)[nH]c2C)C(=O)c2cc(Cl)c(C(F)F)cc21` [Example 168, 6-chloro-7-(difluoromethyl)-1-(4-fluoro-2-methylphenyl)-3-(2-methyl-6-oxo-1,6-dihydropyridin-3-yl)-2,3-dihydroquinazolin-4(1H)-one] it was at most 100 nM; in that of `Cc1cc(F)ccc1N1CN(c2c[nH]c(=O)nc2N)C(=O)c2cc(C(F)(F)F)ccc21` [Example 169, 3-(4-amino-2-oxo-1,2-dihydropyrimidin-5-yl)-1-(4-fluoro-2-methylphenyl)-6-(trifluoromethyl)-2,3-dihydroquinazolin-4(1H)-one], 126 to 631 nM.
For `Cc1cc(OC(F)(F)F)ccc1N1CN(c2ccc(=O)[nH]c2C)C(=O)c2cc(Cl)c(C#N)nc21` [Example 170, 6-chloro-1-(2-methyl-4-(trifluoromethoxy)phenyl)-3-(2-methyl-6-oxo-1,6-dihydropyridin-3-yl)-4-oxo-1,2,3,4-tetra-hydropyrido[2,3-d]pyrimidine-7-carbonitrile], the IC50 is at most 100 nM.
In the case of `Cc1cc(F)ccc1N1CN(c2ccc(=O)[nH]c2C)C(=O)c2cc(Cl)c(C#N)nc21` [Example 171, 6-chloro-1-(4-fluoro-2-methylphenyl)-3-(2-methyl-6-oxo-1,6-dihydropyridin-3-yl)-4-oxo-1,2,3,4-tetra-hydropyrido[2,3-d]pyrimidine-7-carbonitrile] it was at most 100 nM.
The same measure for `Cc1cc(OC(F)(F)F)ccc1N1CN(c2ccc(=O)[nH]c2C)C(=O)c2cc(Cl)c(C#N)cc21` [Example 172, 6-chloro-1-(2-methyl-4-(trifluoromethoxy)phenyl)-3-(2-methyl-6-oxo-1,6-dihydropyridin-3-yl)-4-oxo-1,2,3,4-tetra-hydroquinazoline-7-carbonitrile]: at most 100 nM.
Take `Cc1cc(F)ccc1N1CN(c2cnc(=O)[nH]c2C)C(=O)c2cc(Cl)c(C#N)cc21` [Example 173, 6-chloro-1-(4-fluoro-2-methylphenyl)-3-(6-methyl-2-oxo-1,2-dihydropyrimidin-5-yl)-4-oxo-1,2,3,4-tetra-hydroquinazoline-7-carbonitrile]: the IC50 was at most 100 nM.
On to `Cc1[nH]c(=O)ccc1N1CN(c2cccc(C(F)(F)F)c2C)c2ncc(C(F)(F)F)cc2C1=O` [Example 174, 1-(2-methyl-3-(trifluoromethyl)phenyl)-3-(2-methyl-6-oxo-1,6-dihydropyridin-3-yl)-6-(trifluoromethyl)-2,3-dihydropyrido[2,3-d]pyrimidin-4(1H)-one], for which the IC50 is 126 to 631 nM.
With `Cc1[nH]c(=O)ccc1N1CN(c2cccc(Cl)c2C)c2ncc(C(F)(F)F)cc2C1=O` [Example 175, 1-(3-chloro-2-methylphenyl)-3-(2-methyl-6-oxo-1,6-dihydropyridin-3-yl)-6-(trifluoromethyl)-2,3-dihydropyrido[2,3-d]pyrimidin-4(1H)-one], the IC50 was 126 to 631 nM.
In the case of `CCc1cc(F)ccc1N1CN(c2ccc(=O)[nH]c2C)C(=O)c2cc(C(F)(F)F)cnc21` [Example 176, 1-(2-ethyl-4-fluorophenyl)-3-(2-methyl-6-oxo-1,6-dihydropyridin-3-yl)-6-(trifluoromethyl)-2,3-dihydropyrido[2,3-d]pyrimidin-4(1H)-one] it was at most 100 nM.
`Cc1[nH]c(=O)ccc1N1CN(c2ccc(F)c(F)c2C)c2ncc(C(F)(F)F)cc2C1=O` [Example 177, 1-(3,4-difluoro-2-methylphenyl)-3-(2-methyl-6-oxo-1,6-dihydropyridin-3-yl)-6-(trifluoromethyl)-2,3-dihydropyrido[2,3-d]pyrimidin-4(1H)-one]: the IC50 was at most 100 nM.
On to `Cc1[nH]c(=O)ccc1N1CN(c2ccc(F)cc2C(C)C)c2ccc(C(F)(F)F)cc2C1=O` [Example 178, 1-(4-fluoro-2-isopropylphenyl)-3-(2-methyl-6-oxo-1,6-dihydropyridin-3-yl)-6-(trifluoromethyl)-2,3-dihydroquinazolin-4(1H)-one], for which the IC50 was at most 100 nM.
In the case of `Cc1cc(=O)[nH]cc1N1CN(c2ccc(F)cc2C)c2ccc(C(F)(F)F)cc2C1=O` [Example 179, 1-(4-fluoro-2-methylphenyl)-3-(4-methyl-6-oxo-1,6-dihydropyridin-3-yl)-6-(trifluoromethyl)-2,3-dihydroquinazolin-4(1H)-one], the IC50 was 126 to 631 nM.
`Cc1[nH]c(=O)ccc1N1CN(c2ccc(F)cc2C(C)C)c2ccc(F)cc2C1=O` [Example 180, 6-fluoro-1-(4-fluoro-2-isopropylphenyl)-3-(2-methyl-6-oxo-1,6-dihydropyridin-3-yl)-2,3-dihydroquinazolin-4(1H)-one]: the IC50 is at most 100 nM.
Regarding `Cc1[nH]c(=O)ccc1N1CN(c2ccc(F)cc2C2CC2)c2ccccc2C1=O` [Example 181, 1-(2-cyclopropyl-4-fluorophenyl)-3-(2-methyl-6-oxo-1,6-dihydropyridin-3-yl)-2,3-dihydroquinazolin-4(1H)-one], the IC50 is 126 to 631 nM.
For the molecule `Cc1[nH]c(=O)ccc1N1CN(c2ccc(F)cc2C2CC2)c2cc(C(F)(F)F)ccc2C1=O` [Example 182, 1-(2-cyclopropyl-4-fluorophenyl)-3-(2-methyl-6-oxo-1,6-dihydropyridin-3-yl)-7-(trifluoromethyl)-2,3-dihydroquinazolin-4(1H)-one], the IC50 is at most 100 nM.
